Measurements reported in paper PMC3979416 (The Journal of Biological Chemistry, 2014).
Read-outs that look alike come from different tables or passages of the source.

Legend:
[1] = test system: BRD4 wild type; test: FRAP of GFP-BRD4 wild type with JQ1; format: cell-based, human; settings: U2OS cells, 1 μM JQ1 1 h before imaging
Experimental: For the photobleaching experiments we used full-length human BRD4 cDNA (RefSeq NM_058243.2) cloned into the pcDNA6.2/N-EmGFP-DEST plasmid (Invitrogen) by the Gateway technology (Invitrogen) to create a chimeric green fluorescent protein (GFP)/wild-type BRD4 expression construct. […] The synthesized DNA fragments were cloned into the pTT5 ([49]) destination vector using a lambda site-specific recombination system (LR-recombination, Gateway Technology, Invitrogen). Plasmid DNA was prepared using the QIAprep Spin Miniprep kit (Qiagen).
FRAP studies were performed using a protocol modified from previous work ([17], [55]). In brief, U2OS cells were reverse-transfected (Lipofectamine 2000, Invitrogen) with mammalian expression constructs encoding chimeric GFP-BRD4 (wild type or mutants). […] The average intensity at each imaging time point was measured for three regions of interest: the bleached region (It), the total cell nucleus (Tt), and a random region outside of the cell for background subtraction (BG). […] The base line was normalized to zero, and the prebleach was normalized to 1. Normalized data were imported into GraphPad Prism 6.0, and half-times of recovery (t½) were calculated from individual single exponential curve fits for each cell and presented as the mean for each group. p values were calculated using an unpaired t test.

[2] = test system: BRD4 BD1 mutants; test: Thermal shift assay with JQ1, mutants as a group; format: binding, human; settings: 100 μM JQ1
Experimental: In a typical TSA, 0.4 μg of BRD4 BD1 protein were mixed with 5× Sypro Orange (Molecular Probe) and adjusted to a final volume of 5 μl with 100 mM HEPES buffer, pH 7.5 (Applichem), and 150 mM NaCl (Sigma). […] To protect samples from evaporation, they were overlaid with 1 μl of silicone oil DC200 (Sigma). […] For data analysis, melting curves (fluorescence intensity changes at increasing temperatures) were fitted using a first derivative method ([51]) to determine the melting point Tm and the unfolding enthalpy ΔHu using the evaluation software provided by the manufacturer of the instrument. A series of thermal melting curves was collected in the presence of varying inhibitor concentrations.
(§1) Standard free energy of binding (ΔG°) and entropy (ΔS°) were calculated with the equations ΔG° = −RTln(1/KD°) and −TΔS° = ΔG° × ΔH°b. To facilitate comparisons dΔG° was also calculated: dΔG° = ΔG° (mt) − ΔG° (WT).

[3] = test system: BRD4 BD1 mutants; format: cell-based, human
Experimental: (§2) For the cellular stabilization assays, the codon-optimized sequence of the wild-type and mutant versions of BRD4 BD1 (amino acids 44–166) flanked by an N-terminal His6 tag and a C-terminal FLAG tag and by 5′ and 3′ site-specific attachment sites for recombination using the Gateway technology (Invitrogen) were prepared by total DNA synthesis (GeneArt). The synthesized DNA fragments were cloned into the pTT5 ([49]) destination vector using a lambda site-specific recombination system (LR-recombination, Gateway Technology, Invitrogen). Plasmid DNA was prepared using the QIAprep Spin Miniprep kit (Qiagen).
(§3) HEK293–6E cells (Yves Durocher, National Research Council Canada) were grown in suspension with gentle shaking in FreeStyle F17 medium (Invitrogen) containing 4 mM L-alanyl-L-glutamine (BioChrom AG) and 0.1% Pluronic (Invitrogen). For transfection with DNA, 10 ml of cell suspension at a density of 10^6 cells/ml were prepared. […]
(§4) Plates were incubated at room temperature in the dark for 2 h. Time-resolved fluorescence was measured with a PHERAstar FS microplate reader (BMG Labtech) using the homogeneous time-resolved fluorescence module (excitation 337 nm, emission 1: 620 nm; emission 2: 665 nm). […]

[4] = biological target: BRD4 BD1 wild type; settings: pH 7.5
[5] = biological target: T1, BRD4 BD1 W81A (Homo sapiens, UniProt O60885, W81A)
[6] = biological target: T2, BRD4 BD1 P82A (Homo sapiens, UniProt O60885, P82A)
[7] = biological target: T3, BRD4 BD1 L94A (Homo sapiens, UniProt O60885, L94A)
[8] = biological target: T4, BRD4 BD1 Y139F (Homo sapiens, UniProt O60885, Y139F)
[9] = biological target: T5, BRD4 BD1 D144A (Homo sapiens, UniProt O60885, D144A)
[10] = biological target: T6, BRD4 BD1 D145A (Homo sapiens, UniProt O60885, D145A)
[11] = biological target: T7, BRD4 BD1 I146A (Homo sapiens, UniProt O60885, I146A)
[12] = biological target: T8, BRD4 BD1 M149A (Homo sapiens, UniProt O60885, M149A)
[13] = test system: BRD4 BD1 mutants
Experimental: After 30 min of incubation at room temperature, the plates were measured in a Tecan M1000 plate reader using its FP module and excitation/emission wavelengths of 530 and 570 nm, respectively. For KD determinations the background-corrected polarization values were plotted against the concentrations of BRD4, and the data were fitted to a one-site binding equation: Y = Bmax × X/(KD + X), where Y is the specific binding, and Bmax is the maximal binding, using the GraphPad Prism software. Free energy of binding ΔG was calculated as described above.

[14] = test system: BRD4 BD1 wild type; settings: WT, TSA
Experimental: (§5) In a typical TSA, 0.4 μg of BRD4 BD1 protein were mixed with 5× Sypro Orange (Molecular Probe) and adjusted to a final volume of 5 μl with 100 mM HEPES buffer, pH 7.5 (Applichem), and 150 mM NaCl (Sigma). […] To protect samples from evaporation, they were overlaid with 1 μl of silicone oil DC200 (Sigma). Melting curves were recorded using a ThermoFluor system (Johnson and Johnson Pharmaceutical Research and Development) after heating the samples from 25 up to 95 °C while measuring the fluorescence intensity of the dye with the excitation and emission filters set to 465 and 590 nm, respectively. For data analysis, melting curves (fluorescence intensity changes at increasing temperatures) were fitted using a first derivative method ([51]) to determine the melting point Tm and the unfolding enthalpy ΔHu using the evaluation software provided by the manufacturer of the instrument. […] The heat capacity of protein unfolding (ΔCpu) was assumed to be independent of the temperature and estimated from the size of the protein using the equation ([52]), ΔCpu = −119 + 0.20(−907 + 93(#residues)). […] ([53]).
as §1

[15] = biological target: T1, BRD4 BD1 W81A; settings: TSA
Experimental: as §5, §1

[16] = biological target: T2, BRD4 BD1 P82A; settings: TSA
Experimental: as §5, §1

[17] = biological target: T3, BRD4 BD1 L94A; settings: TSA
Experimental: as §5, §1

[18] = test system: BRD4 BD1 Y97F; settings: TSA, 100 μM JQ1, pH 7.5, mean ± S.D.
Experimental: as §5, §1

[19] = biological target: T4, BRD4 BD1 Y139F; settings: TSA
Experimental: as §5, §1

[20] = test system: BRD4 BD1 N140A; settings: TSA, 100 μM JQ1, pH 7.5, mean ± S.D.
Experimental: as §5, §1

[21] = biological target: T5, BRD4 BD1 D144A; settings: TSA
Experimental: as §5, §1

[22] = biological target: T6, BRD4 BD1 D145A; settings: TSA
Experimental: as §5, §1

[23] = biological target: T7, BRD4 BD1 I146A; settings: TSA
Experimental: as §5, §1

[24] = biological target: T8, BRD4 BD1 M149A; settings: TSA
Experimental: as §5, §1

[25] = biological target: BRD4 BD1 wild type; settings: WT, TR-FRET competition, 50 nM protein, 200 nM biotinylated H4 peptide; IC50 expressed as KD; mean ± S.D.
Experimental: as §1
(§6) The experiments were performed in 384-well black small volume microtiter plates (Greiner) in a buffer composed of 50 mM Hepes, pH 7.5 (Applichem), 50 mM NaCl (Sigma), 400 mM KF (Sigma), 0.5 mM CHAPS (Sigma), and 0.05% BSA (Sigma) in a final volume of 5–10 μl (n = 4). BRD4 (100 nM) protein domains were mixed with 200 nM concentrations of the biotin-labeled histone peptides and incubated for 30 min at room temperature. The protein-peptide complexes at equilibrium were then detected with 5 nM Eu^3+ cryptate-conjugated streptavidin (CisBio) and 10 nM anti-His6-XL665 (Cisbio). To analyze the binding of mutated histone peptides at different ionic strengths, streptavidin Eu^3+ chelate (W1024, PerkinElmer Life Sciences) was used instead of cryptate as fluorescence donor, and KF was replaced by NaCl at concentrations of 20, 100, and 500 mM. After 3 h of further incubation at 4 °C, the plates were measured in a PheraStar reader (BMG Labtech) using the homogeneous time-resolved fluorescence module (excitation, 337 nm with 10 flashes; emission, 620 and 665 nm). […]

[26] = biological target: T2, BRD4 BD1 P82A; settings: TR-FRET competition
Experimental: as §1, §6

[27] = biological target: T3, BRD4 BD1 L94A; settings: TR-FRET competition
Experimental: as §1, §6

[28] = biological target: T4, BRD4 BD1 Y139F; settings: TR-FRET competition
Experimental: as §1, §6

[29] = biological target: T5, BRD4 BD1 D144A; settings: TR-FRET competition
Experimental: as §1, §6

[30] = biological target: T6, BRD4 BD1 D145A; settings: TR-FRET competition
Experimental: as §1, §6

[31] = biological target: T7, BRD4 BD1 I146A; settings: TR-FRET competition
Experimental: as §1, §6

[32] = test system: BRD4 BD1 mutants; remark: listed apart in the source
Experimental: The TR-FRET binding assay used to measure the interaction of BRD4 with acetylated peptides was a modified version of a previously described protocol ([18]). The experiments were performed in 384-well black small volume microtiter plates (Greiner) in a buffer composed of 50 mM Hepes, pH 7.5 (Applichem), 50 mM NaCl (Sigma), 400 mM KF (Sigma), 0.5 mM CHAPS (Sigma), and 0.05% BSA (Sigma) in a final volume of 5–10 μl (n = 4). BRD4 (100 nM) protein domains were mixed with 200 nM concentrations of the biotin-labeled histone peptides and incubated for 30 min at room temperature. The protein-peptide complexes at equilibrium were then detected with 5 nM Eu^3+ cryptate-conjugated streptavidin (CisBio) and 10 nM anti-His6-XL665 (Cisbio). To analyze the binding of mutated histone peptides at different ionic strengths, streptavidin Eu^3+ chelate (W1024, PerkinElmer Life Sciences) was used instead of cryptate as fluorescence donor, and KF was replaced by NaCl at concentrations of 20, 100, and 500 mM.
The plates were then processed as described above. IC50 values were calculated by plotting the log [competitor/inhibitor] versus mean normalized response data from at least two independent experiments measured in triplicate and fitting it to a four-parameter equation with variable Hill slope, Y = bottom + (top-bottom)/(1 + 10^(logIC50 − ^X^) × Hill slope)), using the GraphPad Prism software. […]

[33] = test system: BRD4 BD1 wild type
Experimental: as §2, §3, §4

[34] = test system: BRD4 BD1 Y97F; settings: read-out: EC50 (protein stabilization)
Experimental: as §2, §3, §4

[35] = test system: BRD4 BD1 N140A; settings: read-out: EC50 (protein stabilization)
Experimental: as §2, §3, §4

[36] = test system: Patient-derived NMC tumors; settings: xenograft, ref [17], [26]; cited from earlier work
[37] = biological target: BRD4; test: TR-FRET displacement of the H4 peptide by the JQ1-TAMRA probe; format: binding, human; settings: data not shown
[38] = 100 μM JQ1, pH 7.5, mean ± S.D.

Cc1sc2c(c1C)C(c1ccc(Cl)cc1)=N[C@@H](CC(=O)OC(C)(C)C)c1nnc(C)n1-2 [JQ1, tert-butyl[(6S)-4-(4-chlorophenyl)-2,3,9-trimethyl-6H-thieno[3,2-f][1,2,4]triazolo[4,3-a][1,4]diazepin-6-yl]acetate]
half-fluorescence recovery (in words) [1]: enhanced half-fluorescence recovery
stabilization by JQ1 (in words) ([2]; P82A, L94A, and I146A): moderate stabilization profile
stabilization by JQ1 (in words) ([2]; W81A, Y97F, N140A, and M149A): least stabilized by JQ1
stabilization by JQ1 (in words) ([2]; Y139F, D144A, and D145A): as strongly as wild-type BD1
EC50 increase vs wild type [3]: from 7-fold to >100-fold
Kd [4]: 14.5 ± 3.3 nM
ΔG [5]: -8.29 kcal/mol
ΔG [6]: -9.06 kcal/mol
ΔG [7]: -9.66 kcal/mol
JQ1 binding compared with wild type (in words) [8]: not significantly different compared with wild-type BRD4 BD1
ΔG [8]: -10.8 kcal/mol
ΔG [9]: -9.89 kcal/mol
JQ1 binding compared with wild type (in words) [10]: not significantly different compared with wild-type BRD4 BD1
ΔG [10]: -10.6 kcal/mol
ΔG [11]: -8.7 kcal/mol
ΔG [12]: -8.96 kcal/mol
effect of mutation on JQ1 binding (in words) [13]: strongest effects
ΔTm ([14]; 100 μM JQ1, 100 mM HEPES pH 7.5, 150 mM NaCl, mean ± S.D.): 9.6 ± 0.6 °C
Kd ([14]; extrapolated standard KD): 1 nM
ΔG° [15]: -10.7 kcal/mol
−TΔS° [15]: -8.53 kcal/mol
ΔTm [15, 38]: 2.8 ± 0.4 °C
ΔH°b ([15]; 100 μM JQ1 vs DMSO): -2.2 kcal/mol
ΔG° [16]: -11.5 kcal/mol
−TΔS° [16]: -7.36 kcal/mol
ΔTm [16, 38]: 5.1 ± 0.2 °C
ΔH°b ([16]; 100 μM JQ1 vs DMSO): -4.16 kcal/mol
ΔG° [17]: -11.8 kcal/mol
−TΔS° [17]: -7.6 kcal/mol
ΔTm [17, 38]: 6.9 ± 0.4 °C
ΔH°b ([17]; 100 μM JQ1 vs DMSO): -4.23 kcal/mol
ΔTm [18]: 3.1 ± 0.6 °C
ΔG° [19]: -12.3 kcal/mol
−TΔS° [19]: -7.84 kcal/mol
ΔTm [19, 38]: 9.8 ± 0.3 °C
ΔH°b ([19]; 100 μM JQ1 vs DMSO): -4.47 kcal/mol
ΔTm [20]: 3.3 ± 0.4 °C
ΔG° [21]: -12.3 kcal/mol
−TΔS° [21]: -9.89 kcal/mol
ΔTm [21, 38]: 9.5 ± 0.6 °C
ΔH°b ([21]; 100 μM JQ1 vs DMSO): -2.37 kcal/mol
ΔG° [22]: -12.2 kcal/mol
−TΔS° [22]: -10.7 kcal/mol
ΔTm [22, 38]: 9.2 ± 0.6 °C
ΔH°b ([22]; 100 μM JQ1 vs DMSO): -1.55 kcal/mol
ΔG° [23]: -11.8 kcal/mol
−TΔS° [23]: -9.66 kcal/mol
ΔTm [23, 38]: 6.1 ± 0.3 °C
ΔH°b ([23]; 100 μM JQ1 vs DMSO): -2.1 kcal/mol
ΔG° [24]: -10.9 kcal/mol
−TΔS° [24]: -10.8 kcal/mol
ΔTm [24, 38]: 3.2 ± 0.3 °C
ΔH°b ([24]; 100 μM JQ1 vs DMSO): -0.12 kcal/mol
Kd [25]: 106 ± 13.9 nM
ΔG [26]: -9.13 kcal/mol
ΔG [27]: -9.94 kcal/mol
ΔG [28]: -9.75 kcal/mol
ΔG [29]: -9.94 kcal/mol
increase of inhibitory activity vs wild type [30]: 6 fold
ΔG [30]: -10.5 kcal/mol
ΔG [31]: -9.39 kcal/mol
inhibition of BRD4-H4 interaction vs wild type (in words) ([32]; Leu-94 and Asp-145 mutated to alanine): better inhibitor
inhibition of BRD4-H4 interaction vs wild type (in words) ([32]; P82A): slightly decreased
protein levels (in words) [33]: dose-dependent and saturable increase of the TR-FRET signals
EC50 ([33]; read-out: EC50 (protein stabilization)): 100 nM
EC50 [34]: > 10000 nM
EC50 [35]: 8400 nM
tumor inhibition (in words) [36]: inhibited

Cc1sc2c(c1C)C(c1ccc(Cl)cc1)=N[C@@H](CC(=O)NCCCCCNC(=O)c1ccc(-c3c4ccc(=[N+](C)C)cc-4oc4cc(N(C)C)ccc34)c(C(=O)[O-])c1)c1nnc(C)n1-2 [JQ1-TAMRA, 5-{[5-({[(6S)-4-(4-chlorophenyl)-2,3,9-trimethyl-6H-thieno[3,2-f][1,2,4]triazolo [4,3-a][1,4]diazepin-6-yl]acetyl}amino)pentyl]carbamoyl}-2-[6-(dimethylamino)-3-(dimethyliminio)-3H-xanthen-9-yl]benzoate]
KD (in words) [37]: comparable with that of JQ1
